ChEMBL document CHEMBL2074472, “In vitro and in vivo reversal of cancer cell multidrug resistance by the semi-synthetic antibiotic tiamulin” (Biochem Pharmacol, 1998)

Assays:
Assay type in all cases: functional, cell-based
[1] = target: ATP-dependent translocase ABCB1 (Homo sapiens, UniProt P08183); experiment: TP_TRANSPORTER: increase in Daunomycin intracellular accumulation (Daunomycin: 1.9 uM, Tiamulin: 2 uM) in CEM/VLB3.6 cells, flow cytometry; conditions: cem/vlb3.6, 2 µM
[2] = target: ATP-dependent translocase ABCB1 (Mus musculus, UniProt P21447); experiment: TP_TRANSPORTER: increase in Daunomycin intracellular accumulation (Daunomycin: 1.9 uM, Tiamulin: 2 uM) in P388/ADR25 cells, flow cytometry; conditions: p388/adr25, 2 µM
[3] = target: Multidrug resistance protein 1a (Rattus norvegicus) (UniProt Q6PSM0); experiment: TP_TRANSPORTER: increase in Daunomycin intracellular accumulation (Daunomycin: 1.9 uM, Tiamulin: 2 uM) in AS30-D/COL10 cells, flow cytometry
Chain of Multidrug resistance protein 1a (Rattus norvegicus) (Q6PSM0 as listed by the source): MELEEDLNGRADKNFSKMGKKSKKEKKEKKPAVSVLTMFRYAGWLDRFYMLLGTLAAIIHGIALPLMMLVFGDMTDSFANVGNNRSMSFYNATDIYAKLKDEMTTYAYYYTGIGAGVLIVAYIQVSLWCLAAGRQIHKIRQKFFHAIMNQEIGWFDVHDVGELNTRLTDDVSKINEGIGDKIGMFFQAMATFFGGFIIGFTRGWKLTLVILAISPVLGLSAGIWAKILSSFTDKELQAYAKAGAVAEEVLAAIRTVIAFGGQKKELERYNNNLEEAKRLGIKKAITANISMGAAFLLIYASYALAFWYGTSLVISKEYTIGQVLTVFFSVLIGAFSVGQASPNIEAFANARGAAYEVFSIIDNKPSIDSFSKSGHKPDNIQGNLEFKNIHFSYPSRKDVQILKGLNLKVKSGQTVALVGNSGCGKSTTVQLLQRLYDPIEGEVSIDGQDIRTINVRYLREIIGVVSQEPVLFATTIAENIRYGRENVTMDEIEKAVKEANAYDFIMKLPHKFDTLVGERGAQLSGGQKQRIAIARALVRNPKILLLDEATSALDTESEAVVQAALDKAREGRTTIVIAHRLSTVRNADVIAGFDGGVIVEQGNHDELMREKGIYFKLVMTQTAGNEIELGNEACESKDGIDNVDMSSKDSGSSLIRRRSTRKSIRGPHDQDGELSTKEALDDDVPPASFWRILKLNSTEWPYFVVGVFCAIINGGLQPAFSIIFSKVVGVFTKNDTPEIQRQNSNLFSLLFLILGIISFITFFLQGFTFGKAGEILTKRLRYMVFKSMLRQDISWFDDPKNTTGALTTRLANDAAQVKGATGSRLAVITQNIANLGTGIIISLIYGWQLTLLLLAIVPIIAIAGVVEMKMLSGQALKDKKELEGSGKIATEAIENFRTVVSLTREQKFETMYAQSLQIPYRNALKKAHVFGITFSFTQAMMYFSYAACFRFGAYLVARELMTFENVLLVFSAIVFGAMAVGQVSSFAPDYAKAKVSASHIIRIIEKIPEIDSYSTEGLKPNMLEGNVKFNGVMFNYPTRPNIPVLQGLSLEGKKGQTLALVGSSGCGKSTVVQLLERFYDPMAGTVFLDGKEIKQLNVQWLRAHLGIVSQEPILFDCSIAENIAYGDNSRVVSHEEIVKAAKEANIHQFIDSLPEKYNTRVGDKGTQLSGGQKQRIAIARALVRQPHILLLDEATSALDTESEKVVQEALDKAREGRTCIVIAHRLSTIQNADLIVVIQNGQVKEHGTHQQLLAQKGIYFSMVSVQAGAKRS

Chain of ATP-dependent translocase ABCB1 (Mus musculus, UniProt P21447) (P21447 whole entry): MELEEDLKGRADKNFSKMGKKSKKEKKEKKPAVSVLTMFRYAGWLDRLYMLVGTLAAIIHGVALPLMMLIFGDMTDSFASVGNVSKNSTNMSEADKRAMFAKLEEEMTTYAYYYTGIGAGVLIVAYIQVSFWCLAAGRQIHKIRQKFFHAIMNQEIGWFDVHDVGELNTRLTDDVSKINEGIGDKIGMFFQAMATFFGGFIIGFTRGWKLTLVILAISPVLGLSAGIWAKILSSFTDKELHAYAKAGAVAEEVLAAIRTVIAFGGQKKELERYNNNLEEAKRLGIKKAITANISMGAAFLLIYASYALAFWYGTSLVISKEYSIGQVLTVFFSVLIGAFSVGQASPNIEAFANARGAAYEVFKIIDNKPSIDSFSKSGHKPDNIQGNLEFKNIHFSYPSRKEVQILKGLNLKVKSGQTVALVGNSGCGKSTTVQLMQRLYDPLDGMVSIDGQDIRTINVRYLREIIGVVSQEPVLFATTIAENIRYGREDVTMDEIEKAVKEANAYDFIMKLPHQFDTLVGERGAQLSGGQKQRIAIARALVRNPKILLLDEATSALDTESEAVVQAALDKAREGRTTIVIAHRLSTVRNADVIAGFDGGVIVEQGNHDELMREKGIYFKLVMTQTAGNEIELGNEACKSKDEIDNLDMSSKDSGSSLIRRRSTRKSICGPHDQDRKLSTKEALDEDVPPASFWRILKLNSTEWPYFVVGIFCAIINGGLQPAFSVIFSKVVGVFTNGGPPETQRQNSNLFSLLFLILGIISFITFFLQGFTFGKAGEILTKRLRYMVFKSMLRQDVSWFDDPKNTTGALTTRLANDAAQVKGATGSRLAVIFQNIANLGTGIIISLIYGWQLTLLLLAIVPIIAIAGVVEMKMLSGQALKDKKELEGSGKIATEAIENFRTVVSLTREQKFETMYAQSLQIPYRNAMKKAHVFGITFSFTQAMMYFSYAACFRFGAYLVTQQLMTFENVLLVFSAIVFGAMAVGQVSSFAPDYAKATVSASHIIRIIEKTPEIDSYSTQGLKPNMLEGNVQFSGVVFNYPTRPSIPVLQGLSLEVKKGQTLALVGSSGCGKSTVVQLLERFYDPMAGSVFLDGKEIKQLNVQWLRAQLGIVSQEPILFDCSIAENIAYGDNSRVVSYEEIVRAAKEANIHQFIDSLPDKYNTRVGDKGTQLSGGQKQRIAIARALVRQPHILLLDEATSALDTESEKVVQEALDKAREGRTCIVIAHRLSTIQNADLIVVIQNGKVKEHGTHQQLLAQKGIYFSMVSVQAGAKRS
Chain of ATP-dependent translocase ABCB1 (Homo sapiens, UniProt P08183) (P08183 whole entry): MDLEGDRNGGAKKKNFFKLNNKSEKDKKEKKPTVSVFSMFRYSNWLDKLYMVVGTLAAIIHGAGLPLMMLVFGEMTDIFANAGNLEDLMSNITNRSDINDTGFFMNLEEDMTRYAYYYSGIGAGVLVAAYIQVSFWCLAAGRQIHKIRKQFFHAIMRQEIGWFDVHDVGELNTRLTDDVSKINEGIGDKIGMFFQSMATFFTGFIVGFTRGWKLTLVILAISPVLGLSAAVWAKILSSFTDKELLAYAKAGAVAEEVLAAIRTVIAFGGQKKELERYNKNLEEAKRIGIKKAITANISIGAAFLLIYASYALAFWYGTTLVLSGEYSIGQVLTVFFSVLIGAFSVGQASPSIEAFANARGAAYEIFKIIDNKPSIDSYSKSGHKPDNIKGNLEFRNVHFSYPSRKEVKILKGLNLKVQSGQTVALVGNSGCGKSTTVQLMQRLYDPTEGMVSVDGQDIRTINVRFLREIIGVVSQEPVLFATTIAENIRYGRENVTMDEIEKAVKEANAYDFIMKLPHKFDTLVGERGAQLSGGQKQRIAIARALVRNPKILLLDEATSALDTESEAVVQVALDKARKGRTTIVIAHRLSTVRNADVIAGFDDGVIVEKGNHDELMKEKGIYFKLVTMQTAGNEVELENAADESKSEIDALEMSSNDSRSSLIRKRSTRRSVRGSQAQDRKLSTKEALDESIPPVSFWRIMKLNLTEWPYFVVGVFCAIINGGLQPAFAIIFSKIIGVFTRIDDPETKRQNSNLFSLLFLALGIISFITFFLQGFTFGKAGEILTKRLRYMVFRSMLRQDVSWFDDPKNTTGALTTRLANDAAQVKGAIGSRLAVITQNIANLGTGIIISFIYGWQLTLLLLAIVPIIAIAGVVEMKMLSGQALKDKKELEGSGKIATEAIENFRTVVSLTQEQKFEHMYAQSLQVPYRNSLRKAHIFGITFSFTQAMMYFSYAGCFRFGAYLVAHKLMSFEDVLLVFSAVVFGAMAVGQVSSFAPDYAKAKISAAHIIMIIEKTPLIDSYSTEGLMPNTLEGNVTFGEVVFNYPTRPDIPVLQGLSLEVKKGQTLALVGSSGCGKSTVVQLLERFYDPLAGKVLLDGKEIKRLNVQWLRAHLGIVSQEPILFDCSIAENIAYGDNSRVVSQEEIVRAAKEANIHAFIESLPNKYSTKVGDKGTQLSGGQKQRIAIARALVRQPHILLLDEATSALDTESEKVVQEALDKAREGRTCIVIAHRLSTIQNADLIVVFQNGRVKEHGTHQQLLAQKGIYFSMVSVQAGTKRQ

C=C[C@]1(C)C[C@@H](OC(=O)CSCCN(CC)CC)[C@]2(C)[C@H](C)CC[C@]3(CCC(=O)[C@H]32)[C@@H](C)[C@@H]1O [TIAMULIN]
Activity [1]: inhibitor [+]
Activity [2]: inhibitor [+]
Activity [3]: inhibitor [+]
